US10278965B2, “Method of detecting cancer stem cell, method of screening cancer stem cell, and method of inhibiting cancer stem cell” (CANON KABUSHIKI KAISHA, priority 2012, dated 2019)

How the values were obtained:
[1] = test system: Human chronic myelocytic leukemia cells, K562, ALDH (+) fraction (cancer stem cells); assay: Cancer stem-cell selective inhibitory action against chronic myelocytic leukemia cells, ALDH (+) fraction; format: cell-based; details: 24 hours
Procedure: (§1) Human chronic myelocytic leukemia cells, K562, were pre-cultured in RPMI1640 medium containing 10% FBS at 37° C. in a 5% CO2 ambient. Then, a fraction containing 80% or more of cancer stem cells was extracted by use of a cancer stem cell marker, ALDEFLUOR reagent (manufactured by VERITAS Corporation) and FACSAria flow cytometry (manufactured by Nippon Becton, Dickinson and Company). […] The cultured cells were analyzed for viable cell count according to CellTiter-Glo Luminescent Cell Viability Assay (manufactured by Promega KK.). […] Note that hereinafter, an ALDEFLUOR reagent positive fraction (deemed as cancer stem cells) is represented by ALDH (+), whereas an ALDEFLUOR reagent negative fraction (not deemed as cancer stem cells) is represented by ALDH (−), in some cases.
(§2) Further, the growth suppressive effect of cancer stem cells was evaluated based on the following criteria. Note that the growth rate in Examples is a value obtained by dividing viable cell count after culture by the number of cells at the initiation time of culture.

[2] = test system: K562-KOr human chronic myelocytic leukemia cells, ALDH (−) fraction, transplanted to zebra young fish; assay: Inhibitory action in cancer cells transplanted animal, ALDH (−) fraction; format: in vivo; details: 0.5 μm in breeding water added 24 hours after transplantation, fluorescent intensity
Text: (§3) From cell strain K562-KOr, which is a strain of human chronic myelocytic leukemia cells having fluorescent protein Kusabira-Orange constantly expressed, a fraction (ALDH (+)) containing 80% or more of cancer stem cells was extracted by use of a cancer stem cell marker, ALDEFLUOR reagent (manufactured by VERITAS Corporation) and FACSAria flow cytometry (manufactured by Nippon Becton, Dickinson and Company). The ALDH (+) fraction and a ALDH (−) fraction of general cancer cells were transplanted separately to zebra young fish (MieKomachi lineage, 2 days after fertilization) and the fish were raised in a 32° C. environment. Furthermore, 24 hours after transplantation, Compound (16) was added to breeding water so as to obtain a final concentration of […] and fish were raised for two days in a 32° C. environment.
(§4) Cells transplanted to the zebra young fish were observed under MZ16F fluorescent stereoscopic microscope (manufactured by Leica Microsystems) and a fluorescent image of the cells after 24 hours was photographed and then fluorescent intensity was quantified.
As a reference, the fluorescent intensity of cells, which were cultured in the same operation method as above in a medium containing a 0.1% DMSO solution in place of Compound (16), was used. […]

[3] = test system: K562 ALDH (+) cells; assay: Cancer stem-cell selective staining, ALDH (+) cells; format: cell-based, Human; details: cells of Experimental Examples 39, 42 and 45 (1 μg/ml, cultured for 24 hours), fluorescent microscope
Procedure: (§5) The cells cultured for 24 hours in each of Experimental Examples 39, 42 and 45 were subjected to nuclear staining with Hoechest33342 (manufactured by Dojindo Laboratories) and a fluorescent image observed under AXIOVERT200M inverted fluorescent microscope (manufactured by Carl Zeiss) was photographed.

[4] = test system: Prostatic cancer cells, PC-3; assay: Cancer cell inhibitory (growth suppressive) action against prostatic cancer cells, CellTiter-Glo viable cell count; format: cell-based; details: PC-3, 10 μg/mL, 24 hours
Procedure: Prostatic cancer cells, PC-3, were pre-cultured in RPMI1640 medium containing 10% FBS at 37° C. in a 5% CO2 ambient. Thereafter, 4,000 cells were seeded per well of a 96-well plate and further cultured for 24 hours. Subsequently, Compound (1) was added to the medium so as to obtain a final concentration of 10 μg/mL and cultured at 37° C. for 24 hours in a 5% CO2 ambient. The cultured cells were analyzed for viable cell count according to Cell Titer-Glo Luminescent Cell Viability Assay (manufactured by Promega KK.).
Viable cell count was analyzed in the same manner as in Experimental Example 24 except that Compound (1) of Experimental Example 24 was changed to each compound shown in Table 2.
Viable cell count was analyzed in the same manner as in Experimental Example 24 except that Compound (1) of Experimental Example 24 was changed to each of Comparative compounds 1 to 4, to obtain growth rates.
Note that the growth rate used in Examples refers to the rate (expressed by percentage) of viable cell count after culture relative to the number of cells at the initiation of cell culture. Evaluation criteria are the same as in the above experiments.

[5] = Measurement of fluorescent property of compound; format: physicochemical; details: 5 μM DMSO solution
Procedure: The excitation wavelength and fluorescence wavelength of the compound were measured by a FL4500 spectrofluorometric measuring machine manufactured by Hitachi High-Technologies Corporation.

[6] = test system: K562-KOr human chronic myelocytic leukemia cells, ALDH (+) fraction, transplanted to zebra young fish; assay: Inhibitory action in cancer stem cells transplanted animal, ALDH (+) fraction; format: in vivo; details: for Growth suppression rate (ALDH(+) versus ALDH(−)): zebra young fish transplanted with K562-KOr fractions; for ALDH(+) inhibition rate 100×(1−F1/F0): zebra young fish, 0.5 μm in breeding water added 24 hours after transplantation, fluorescent intensity
Text: as §3, §4
As a reference, the fluorescent intensity of cells, which were cultured in the same operation method as above in a medium containing a 0.1% DMSO solution in place of Compound (16), was used.
The numerical value of fluorescent intensity was obtained from a fluorescent image taken in the same manner as in Experimental Example 74 except that Compound (16) of Experimental Example 74 was changed to Imatinib.
. The inhibition rate herein was obtained according to the expression: 100×(1−F1/F0), where the fluorescent intensity of cells when a test substance was added is represented by F1, and the fluorescent intensity of cells when a reference substance (DMSO) was added is represented by F0.

[7] = test system: K562 ALDH (−) cells; assay: Cancer stem-cell selective staining, ALDH (−) cells; format: cell-based, Human; details: cells of Experimental Examples 39, 42 and 45 (1 μg/ml, cultured for 24 hours), fluorescent microscope
Procedure: as §5

[8] = test system: Human pancreas cancer cells, KLM-1; assay: Cancer cell inhibitory (growth suppressive) action against pancreatic cancer cells, CellTiter-Glo viable cell count; details: KLM-1, 10 μg/mL, 24 hours
Procedure: Human pancreas cancer cells, KLM-1, were pre-cultured in RPMI1640 medium containing 10% FBS at 37° C. in a 5% CO2 ambient. Thereafter, 4,000 cells were seeded per well of a 96-well plate and further cultured for 24 hours. […] The cultured cells were analyzed for viable cell count according to CellTiter-Glo Luminescent Cell Viability Assay (manufactured by Promega KK.).
Evaluation of cancer cell inhibition against the pancreatic cancer cells (KLM-1) (growth suppression) was made based on the following criteria. Note that the growth rate used in Examples refers to the rate (expressed by percentage) of viable cell count after culture relative to the number of cells at the initiation of cell culture.

[9] = test system: KLM1-KOr cells, ALDH (+) fraction, transplanted to zebra young fish; assay: Cancer metastasis suppressive effect in cancer cell metastatic foci (region within 300 to 450 μm from a transplanted tumor); format: in vivo; details: 72 hours later, region within 300 to 450 μm from transplanted tumor
Procedure: From cell strain […], in which KLM1 cells have fluorescent protein Kusabira-Orange constantly expressed, a fraction (ALDH (+)) containing 80% or more of cancer stem cells was extracted with ALDEFLUOR reagent (manufactured by VERITAS Corporation) and FACSAria flow cytometry (manufactured by Nippon Becton, Dickinson and Company). The extracted KLM1-KOr cells were transplanted to zebra young fish (MieKomachi lineage, 2 days after fertilization) and the fish were raised in a 32° C. environment. Furthermore, 24 hours after transplantation, Compound (26) (745 μmol/KgBW) was administered to yolk sac.
as §4, with “72 hours later, cells” for “Cells”, “region within 300 to 450 μm from a transplanted tumor” for “cells after 24 hours”
As a reference, the fluorescent intensity of cells, which were cultured in the same operation method as above in a medium containing a 0.1% DMSO solution in place of Compound (26), was used.
Fluorescent images were photographed in the same manner as in Experimental Example 26 except that Imatinib and Dasatinib were respectively used in place of the compound (26) in Experimental Example 75.
The inhibition rate herein was obtained according to the expression: 100×(1−F1/F0), where the fluorescent intensity of cells when a test substance was added is represented by F1, and the fluorescent intensity of cells when a reference substance (DMSO) was added is represented by F0.

[10] = test system: Human chronic myelocytic leukemia cells, K562, ALDH (−) fraction (general cancer cells); assay: Cancer stem-cell selective inhibitory action against chronic myelocytic leukemia cells, ALDH (−) fraction; format: cell-based; details: K562
Procedure: as §1, §2

Compound: CCCCCN1/C(=C\C=C\c2oc3ccccc3[n+]2CCCCC)Oc2ccccc21 [Compound 16]
- ALDH(+) Superiority evaluation ([1]; K562, 0.05 μg/ml): B (The value of the growth rate of ALDH (+)/the growth rate of ALDH (−) is 0.8 or more and less than 0.95)
- ALDH(+)/ALDH(−) ([1]; K562, 0.05 μg/ml): 0.87
- ALDH(+) Superiority evaluation ([1]; K562, 0.5 μg/ml): A (The value of the growth rate of ALDH (+)/the growth rate of ALDH (−) is less than 0.8)
- ALDH(+)/ALDH(−) ([1]; K562, 0.5 μg/ml): 0.70
- ALDH(+) Superiority evaluation ([1]; K562, 1 μg/ml): A (The value of the growth rate of ALDH (+)/the growth rate of ALDH (−) is less than 0.8)
- ALDH(+)/ALDH(−) ([1]; K562, 1 μg/ml): 0.47
- ALDH(−) inhibition rate 100×(1−F1/F0) [2]: 82.0
- ratio of ALDH (+) cells stained [3]: 99.5%
- Cancer cell growth rate (%) [4]: 8.4%
- Evaluation (cancer cell growth rate) [4]: A (Cancer cell growth rate is less than 20%)
- Excitation wavelength λex [5]: 474 nm
- Fluorescence wavelength λem [5]: 509 nm
- Growth suppression rate (ALDH(+) versus ALDH(−)) [6]: ALDH(+) is high
- ALDH(+) inhibition rate 100×(1−F1/F0) [6]: 95.0
- ratio of ALDH (−) cells stained [7]: 18.6%
- Cancer cell growth rate (%) [8]: 2.0%
- Evaluation (cancer cell growth rate) [8]: A (Cancer cell growth rate is less than 20%)

Compound: CCN1/C(=C\C=C\C2=[N+](CC)c3ccccc3C23CCCCC3)C2(CCCCC2)c2ccccc21 [Compound 24]
- ALDH(+) Superiority evaluation ([1]; K562, 0.05 μg/ml): B (The value of the growth rate of ALDH (+)/the growth rate of ALDH (−) is 0.8 or more and less than 0.95)
- ALDH(+)/ALDH(−) ([1]; K562, 0.05 μg/ml): 0.81
- ALDH(+) Superiority evaluation ([1]; K562, 0.5 μg/ml): A (The value of the growth rate of ALDH (+)/the growth rate of ALDH (−) is less than 0.8)
- ALDH(+)/ALDH(−) ([1]; K562, 0.5 μg/ml): 0.61
- ALDH(+) Superiority evaluation ([1]; K562, 1 μg/ml): A (The value of the growth rate of ALDH (+)/the growth rate of ALDH (−) is less than 0.8)
- ALDH(+)/ALDH(−) ([1]; K562, 1 μg/ml): 0.48
- ratio of ALDH (+) cells stained [3]: 81.2%
- Cancer cell growth rate (%) [4]: 10.0%
- Evaluation (cancer cell growth rate) [4]: A (Cancer cell growth rate is less than 20%)
- Excitation wavelength λex [5]: 496 nm
- Fluorescence wavelength λem [5]: 569 nm
- ratio of ALDH (−) cells stained [7]: 28.6%
- Cancer cell growth rate (%) [8]: 6.5%
- Evaluation (cancer cell growth rate) [8]: A (Cancer cell growth rate is less than 20%)

Compound: Cc1ccc(NC(=O)c2ccc(CN3CCN(C)CC3)cc2)cc1Nc1nccc(-c2cccnc2)n1 [Imatinib, reference compound]
- ALDH(+) Superiority evaluation ([1]; K562, 0.12 μg/ml): C (The value of the growth rate of ALDH (+)/the growth rate of ALDH (−) is 0.95 or more)
- ALDH(+)/ALDH(−) ([1]; K562, 0.12 μg/ml): 1.47
- ALDH(+) Superiority evaluation ([1]; K562, 0.24 μg/ml): C (The value of the growth rate of ALDH (+)/the growth rate of ALDH (−) is 0.95 or more)
- ALDH(+)/ALDH(−) ([1]; K562, 0.24 μg/ml): 1.48
- ALDH(+) Superiority evaluation ([1]; K562, 0.35 μg/ml): C (The value of the growth rate of ALDH (+)/the growth rate of ALDH (−) is 0.95 or more)
- ALDH(+)/ALDH(−) ([1]; K562, 0.35 μg/ml): 1.51
- ALDH(+) Superiority evaluation ([1]; K562, 0.47 μg/ml): C (The value of the growth rate of ALDH (+)/the growth rate of ALDH (−) is 0.95 or more)
- ALDH(+)/ALDH(−) ([1]; K562, 0.47 μg/ml): 1.63
- ALDH(+) Superiority evaluation ([1]; K562, 0.59 μg/ml): C (The value of the growth rate of ALDH (+)/the growth rate of ALDH (−) is 0.95 or more)
- ALDH(+)/ALDH(−) ([1]; K562, 0.59 μg/ml): 2.80
- Inhibition rate 100×(1−F1/F0), metastatic foci ([9]; administered to yolk sac 24 hours after transplantation (Compound (26) 745 μmol/KgBW)): 60
- Evaluation (inhibition rate, metastatic foci) [9]: B (Inhibition rate is 50 or more and less than 70)
- ALDH(−) inhibition rate 100×(1−F1/F0) [2]: 80.0
- inhibitory effect against general cancer cells [10]: an inhibitory effect against general cancer cells was observed
- Growth suppression rate (ALDH(+) versus ALDH(−)) [6]: ALDH(−) is high
- ALDH(+) inhibition rate 100×(1−F1/F0) [6]: 60.0
